Tested on: Genes belonging to other category
Assay: DNA chip mRNA expression in yeast, genes belonging to other category (Table 9)
Assay type: cell-based, Saccharomyces cerevisiae S288C
In short: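 Untreated cultures served as reference for log-phase S288C yeast given a growth-inhibiting, non-lethal toxicant dose for 2 h at 25° C. in YPD. Gene expression was measured on a whole-genome DNA chip from Cy3/Cy5-labeled cDNA.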

Which results are given for `CN(C)C(=S)SSC(=S)N(C)C` [(10), Tetramethylthiuram disulfide]?
The level of expressed mRNA in the presence of chemical substance/The level of expressed mRNA in the absence of chemical substance (yeast gene YMR314W): 2.7; The level of expressed mRNA in the presence of chemical substance/The level of expressed mRNA in the absence of chemical substance (yeast gene YNL006W): 4.0; The level of expressed mRNA in the presence of chemical substance/The level of expressed mRNA in the absence of chemical substance (yeast gene YNL007C): 1.7; The level of expressed mRNA in the presence of chemical substance/The level of expressed mRNA in the absence of chemical substance (yeast gene YNL083W): 1.6; The level of expressed mRNA in the presence of chemical substance/The level of expressed mRNA in the absence of chemical substance (yeast gene YNL093W): 2.0; The level of expressed mRNA in the presence of chemical substance/The level of expressed mRNA in the absence of chemical substance (yeast gene YNL135C): 0.5; The level of expressed mRNA in the presence of chemical substance/The level of expressed mRNA in the absence of chemical substance (yeast gene YNL139C): 0.7; The level of expressed mRNA in the presence of chemical substance/The level of expressed mRNA in the absence of chemical substance (yeast gene YNL333W): 2.1; The level of expressed mRNA in the presence of chemical substance/The level of expressed mRNA in the absence of chemical substance (yeast gene YNR010W): 0.9; The level of expressed mRNA in the presence of chemical substance/The level of expressed mRNA in the absence of chemical substance (yeast gene YNR069C): 5.8; The level of expressed mRNA in the presence of chemical substance/The level of expressed mRNA in the absence of chemical substance (yeast gene YOL013C): 1.0; The level of expressed mRNA in the presence of chemical substance/The level of expressed mRNA in the absence of chemical substance (yeast gene YOL038W): 2.7; The level of expressed mRNA in the presence of chemical substance/The level of expressed mRNA in the absence of chemical substance (yeast gene YOL164W): 3.6; The level of expressed mRNA in the presence of chemical substance/The level of expressed mRNA in the absence of chemical substance (yeast gene YOR028C): 2.0; The level of expressed mRNA in the presence of chemical substance/The level of expressed mRNA in the absence of chemical substance (yeast gene YOR036W): 1.9; The level of expressed mRNA in the presence of chemical substance/The level of expressed mRNA in the absence of chemical substance (yeast gene YOR058C): 4.5; The level of expressed mRNA in the presence of chemical substance/The level of expressed mRNA in the absence of chemical substance (yeast gene YOR117W): 1.8; The level of expressed mRNA in the presence of chemical substance/The level of expressed mRNA in the absence of chemical substance (yeast gene YOR124C): 1.9; The level of expressed mRNA in the presence of chemical substance/The level of expressed mRNA in the absence of chemical substance (yeast gene YOR132W): 1.6; The level of expressed mRNA in the presence of chemical substance/The level of expressed mRNA in the absence of chemical substance (yeast gene YOR149C): 1.0; The level of expressed mRNA in the presence of chemical substance/The level of expressed mRNA in the absence of chemical substance (yeast gene YOR157C): 2.6; The level of expressed mRNA in the presence of chemical substance/The level of expressed mRNA in the absence of chemical substance (yeast gene YOR181W): 0.5; The level of expressed mRNA in the presence of chemical substance/The level of expressed mRNA in the absence of chemical substance (yeast gene YOR185C): 2.9; The level of expressed mRNA in the presence of chemical substance/The level of expressed mRNA in the absence of chemical substance (yeast gene YOR198C): 1.4; The level of expressed mRNA in the presence of chemical substance/The level of expressed mRNA in the absence of chemical substance (yeast gene YOR259C): 1.5; The level of expressed mRNA in the presence of chemical substance/The level of expressed mRNA in the absence of chemical substance (yeast gene YOR261C): 2.5; The level of expressed mRNA in the presence of chemical substance/The level of expressed mRNA in the absence of chemical substance (yeast gene YOR285W): 2.9; The level of expressed mRNA in the presence of chemical substance/The level of expressed mRNA in the absence of chemical substance (yeast gene YOR288C): 1.0; The level of expressed mRNA in the presence of chemical substance/The level of expressed mRNA in the absence of chemical substance (yeast gene YOR298W): 1.0; The level of expressed mRNA in the presence of chemical substance/The level of expressed mRNA in the absence of chemical substance (yeast gene YOR355W): 0.8; The level of expressed mRNA in the presence of chemical substance/The level of expressed mRNA in the absence of chemical substance (yeast gene YOR383C): 4.5; The level of expressed mRNA in the presence of chemical substance/The level of expressed mRNA in the absence of chemical substance (yeast gene YPL001W): 1.0; The level of expressed mRNA in the presence of chemical substance/The level of expressed mRNA in the absence of chemical substance (yeast gene YPL020C): 1.6; The level of expressed mRNA in the presence of chemical substance/The level of expressed mRNA in the absence of chemical substance (yeast gene YPL089C): 2.5; The level of expressed mRNA in the presence of chemical substance/The level of expressed mRNA in the absence of chemical substance (yeast gene YPL109C): 1.5; The level of expressed mRNA in the presence of chemical substance/The level of expressed mRNA in the absence of chemical substance (yeast gene YPL124W): 1.0; The level of expressed mRNA in the presence of chemical substance/The level of expressed mRNA in the absence of chemical substance (yeast gene YPL149W): 3.7; The level of expressed mRNA in the presence of chemical substance/The level of expressed mRNA in the absence of chemical substance (yeast gene YPL154C): 1.7; The level of expressed mRNA in the presence of chemical substance/The level of expressed mRNA in the absence of chemical substance (yeast gene YPL177C): 1.0; The level of expressed mRNA in the presence of chemical substance/The level of expressed mRNA in the absence of chemical substance (yeast gene YPL220W): 0.5; The level of expressed mRNA in the presence of chemical substance/The level of expressed mRNA in the absence of chemical substance (yeast gene YPL230W): 2.7; The level of expressed mRNA in the presence of chemical substance/The level of expressed mRNA in the absence of chemical substance (yeast gene YPR081C): 2.6; The level of expressed mRNA in the presence of chemical substance/The level of expressed mRNA in the absence of chemical substance (yeast gene YPR103W): 2.0; The level of expressed mRNA in the presence of chemical substance/The level of expressed mRNA in the absence of chemical substance (yeast gene YPR108W): 2.8; The level of expressed mRNA in the presence of chemical substance/The level of expressed mRNA in the absence of chemical substance (yeast gene YPR149W): 1.8; The level of expressed mRNA in the presence of chemical substance/The level of expressed mRNA in the absence of chemical substance (yeast gene YPR168W): 2.7

Source: patent US8192962B2, “Processes for detecting toxic substances” (Daikin Industries, Ltd., priority 2001, dated 2012)
